Experimental data as given in patent US20050048508A1, “Trehalose receptor and method for detecting trehalose with the same” (KABUSHIKI KAISHA HAYASHIBARA SEIBUTSU KAGAKU KENKYUJO, priority 2002, published 2005).

Biological target: T1, T1R2 and T1R3 without G protein α-subunit (Mus musculus, UniProt Q925D8+Q925I4, E350G/G527D/I706N/P352R/R175Q)
T1 construct: expressed in transfected cells; host or cells: 293 cells, RCB 1637 (human embryonic kidney)
T1 sequence (Q925I4 20-843 R175Q/E350G/P352R/G527D): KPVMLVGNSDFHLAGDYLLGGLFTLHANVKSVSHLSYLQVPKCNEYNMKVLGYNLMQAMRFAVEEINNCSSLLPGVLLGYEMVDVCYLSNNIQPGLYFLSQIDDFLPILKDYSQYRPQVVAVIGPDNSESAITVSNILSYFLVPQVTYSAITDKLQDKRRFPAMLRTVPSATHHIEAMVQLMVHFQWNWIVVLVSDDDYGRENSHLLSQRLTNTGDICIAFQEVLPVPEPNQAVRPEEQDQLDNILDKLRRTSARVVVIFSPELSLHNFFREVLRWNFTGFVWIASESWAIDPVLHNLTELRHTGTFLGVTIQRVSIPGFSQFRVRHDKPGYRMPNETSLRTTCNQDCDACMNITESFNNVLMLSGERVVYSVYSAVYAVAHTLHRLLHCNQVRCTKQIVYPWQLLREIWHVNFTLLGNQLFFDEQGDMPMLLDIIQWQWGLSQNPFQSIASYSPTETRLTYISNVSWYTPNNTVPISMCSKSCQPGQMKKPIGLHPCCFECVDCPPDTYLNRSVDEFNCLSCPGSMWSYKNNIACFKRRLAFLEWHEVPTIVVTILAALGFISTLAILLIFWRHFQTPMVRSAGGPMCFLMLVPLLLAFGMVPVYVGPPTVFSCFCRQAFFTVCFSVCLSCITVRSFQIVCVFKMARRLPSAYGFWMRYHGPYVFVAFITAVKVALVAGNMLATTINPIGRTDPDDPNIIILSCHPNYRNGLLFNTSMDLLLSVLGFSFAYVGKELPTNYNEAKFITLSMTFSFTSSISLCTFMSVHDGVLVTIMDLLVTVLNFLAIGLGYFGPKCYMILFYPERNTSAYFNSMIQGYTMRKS
T1 sequence (Q925D8 21-858 I706N): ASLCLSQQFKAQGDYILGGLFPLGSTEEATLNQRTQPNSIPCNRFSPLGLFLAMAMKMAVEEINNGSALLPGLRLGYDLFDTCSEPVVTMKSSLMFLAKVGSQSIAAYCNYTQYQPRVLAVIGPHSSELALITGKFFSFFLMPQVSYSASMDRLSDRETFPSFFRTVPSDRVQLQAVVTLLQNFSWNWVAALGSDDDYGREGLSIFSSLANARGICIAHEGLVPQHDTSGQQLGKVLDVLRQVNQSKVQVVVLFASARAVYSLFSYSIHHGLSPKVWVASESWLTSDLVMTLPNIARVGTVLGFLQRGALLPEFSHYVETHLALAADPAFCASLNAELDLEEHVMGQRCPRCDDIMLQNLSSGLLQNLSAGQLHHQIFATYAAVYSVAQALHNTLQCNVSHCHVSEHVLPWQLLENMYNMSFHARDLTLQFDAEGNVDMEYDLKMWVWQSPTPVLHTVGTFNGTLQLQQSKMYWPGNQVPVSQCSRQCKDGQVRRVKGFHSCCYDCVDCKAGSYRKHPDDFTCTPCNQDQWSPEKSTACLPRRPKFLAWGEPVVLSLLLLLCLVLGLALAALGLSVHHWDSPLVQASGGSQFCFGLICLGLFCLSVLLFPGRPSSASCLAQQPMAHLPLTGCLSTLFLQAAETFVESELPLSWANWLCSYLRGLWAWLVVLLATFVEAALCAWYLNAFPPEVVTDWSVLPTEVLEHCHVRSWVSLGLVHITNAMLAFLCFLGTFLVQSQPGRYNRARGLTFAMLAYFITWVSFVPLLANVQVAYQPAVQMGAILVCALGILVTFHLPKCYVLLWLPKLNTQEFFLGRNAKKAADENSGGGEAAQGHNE
Assay: Intracellular calcium ion assay, 293 cells expressing T1R2 and T1R3 without G protein α-subunits
Type: cell-based
Conditions: 293 cells: T1R2 + T1R3, no G protein α-subunit; 0.67 ml of 1 M saccharide solution added to 2 ml cell suspension

SMILES: OC[C@H]1O[C@H](O[C@H]2O[C@H](CO)[C@@H](O)[C@H](O)[C@H]2O)[C@H](O)[C@@H](O)[C@@H]1O [Trehalose]
- Influx of calcium ion: Negative

SMILES: OC[C@H]1O[C@@](CO)(O[C@H]2O[C@H](CO)[C@@H](O)[C@H](O)[C@H]2O)[C@@H](O)[C@@H]1O [Sucrose, reference compound]
- Influx of calcium ion: Negative
